The results in this text go back to patent US12098193B2, “Netrin G1 as a biomarker for enhancing tumor treatment efficacy” (Institute For Cancer Research, priority 2017, dated 2024).

The structures appear in SMILES notation. Peptide text beside a SMILES is read from it. * marks the point of attachment. Cbz = O=C(OCc1ccccc1)*; CH2F = FC*

What all share (assay type): cell-based
The test system of assay [1] is PDAC cells. Put plainly: PDAC survival in stressful culture conditions (serum free, glutamine free) with CAFs. To be noted: FIG. 7. The source says:
Referring to FIG. 7 (panel B), extracellular matrix produced by NetG1 knockout CAFs is less supportive to PDAC survival. Referring to FIG. 7 (panel C), knockout of NetG1 in CAFs produced less glutamate and glutamine. Referring to FIG. 7 (panel D), knockout of NetG1 in CAFs and knockout of NGL1 in PDAC expressed less glutamine/glutamate related proteins.

The subject of assay [2] is PDAC cells. Description: NK cell killing assay in 3D (CAF ECM). To be noted: added to NetG1 knockout CAFs; FIG. 11 panel D. The procedure: Knockout of NetG1 in CAFs reduced immunosuppressive cytokine secretion, and CAFs protected PDAC from NK cell induced death in a NetG1/NGL1-dependent manner. Referring to FIG. 11 (panel A), a panel of immunosuppressive and pro-tumor cytokines (GM-CSF, IL-1Beta, CCL20, IL-6, IL-8, TGF-beta) and NK stimulating cytokine (IL-15) was performed. Knockout of NetG1 in CAFs produced less of all cytokines tested, but still produced significant levels of the anti-tumor NK cell cytokine IL-15. Referring to FIG. 11 (panel B), an assay was performed with Granzyme B and IFN-g production in NK cells stimulated with IL-2+IFN-γ (positive controls) or in co-culture conditions with conditioned media or direct contact with CAFs (CON vs knockout of NetG1). Knockout of NetG1 in CAF media or direct contact partially activated NK cells. Referring to FIG. 11 (panel C), an NK cell killing assay in 3D (CAF ECM) was carried out. Knockout of NetG1 in CAFs allowed NK cells to kill PDAC, while CON CAFs protected PDAC.

Assay [3] has as its system PDAC cells. Description: cell death quantification of PDAC (CON or NGL1 knockout) cultured alone or co-cultured with CAFs in 3D under stressful conditions. To be noted: stressful 3D culture (FIG. 9). The procedure: NGL1 expression in PDAC determined the mode of cell death under stressful co-culture conditions with CAFs. Referring to FIG. 9 (panel A), cell death quantification of PDAC (CON or knockout) cultured alone in 3D was carried out. Referring to FIG. 9 (panel B), cell death quantification of PDAC (CON or knockout) co-cultured with CAFs (CON or knockout) in 3D was also carried out. […] Also, knockout of NetG1 I CAFs drove PDAC to higher amounts of death across all conditions.

With `N[C@@H](CCC(=O)O)C(=O)O` [glutamate], in the assay with PDAC cells [1], the “PDAC survival after adding back to the stressful culture conditions” value was “partially rescued PDAC survival”. Also, in the assay with PDAC cells [2], the “protection of PDAC from NK cell-induced death” value was “partially restored protection”.

As for `NC(=O)CC[C@H](N)C(=O)O` [glutamine], the “PDAC survival after adding back to the stressful culture conditions” value in the assay on PDAC cells [1] is reported as “partially rescued PDAC survival”. As for `CC(NC(=O)C(NC(=O)OCc1ccccc1)C(C)C)C(=O)NC(CC(=O)O)C(=O)CF` (stereo not drawn) [zvad] (Cbz-Val-Ala-Asp-CH2F; configuration not given here), the “mode of cell death of NGL1+ PDAC under caspase inhibition” value in the assay with PDAC cells [3] (NGL1+ PDAC) is “driven to necroptotic death”. Besides, the “cell death of NGL- PDAC under caspase inhibition” value with PDAC cells [3] (NGL1 knockout PDAC) is “protected from death”.
